Tests used:
diacetinase = experiment: Solution determination of an esterase enzyme; type: biochemical; conditions: pH 7.5, 25° C.; for Relative Fluorescence, Test Cell: ex 540 nm, em 620 nm
Description: A buffered solution of the substrate was prepared as follows. The substrate in N,N-dimethylformamide (16 mg/ml solvent) was added to 500 μl TRITON X-100 surfactant, and the resulting solution was added slowly to 25 ml potassium phosphate buffer (0.05 molar, pH 7.5) with stirring. Three milliliters of the buffered solution containing the substrate was placed in each of two quartz cells. To one cell was added 10 μl of a solution containing diacetinase (0.218 I.U. diacetinase per μl of potassium phosphate buffer, pH 7.5). The second cell was the Control. The relative fluorescence of each cell solution was measured at various times with a commercially available Perkin-Elmer fluorometer (excitation, 540 nm, maximum emission, 620 nm) at pH 7.5 and 25° C.

white blood cells = experiment: Determination of esterase activity in white blood cells; type: cell-based; conditions: pH 7.5, ex 540 nm, em 620 nm
Description: Leucocyte-rich layers (buffy coats) were purified from blood of healthy adult donors (taken in ACD tubes*) by adding 1.5 ml of Dextran T70 (6% in balanced salt solution), purchased from Pharmacia Fine Chemical (Piscataway, N.J., U.S.A.), to a 10 ml tube of blood. The tubes were allowed to set for one hour, then the plasma layer was transferred to sterile 15 ml centrifuge tubes, and the tubes were filled up to 7.5 ml with PBS solution (8.5 g sodium chloride in 0.05 molar potassium phosphate buffer, pH 7.5). The tubes were centrifuged at 1000 RPM for 10 minutes. The resulting cell pellet was resuspended in 10 ml lysing solution [0.83 g ammonium chloride, 0.1 g sodium bicarbonate and 0.003 g (ethylenedinitrilo)tetraacetic acid disodium salt in 100 ml of water, pH 7.2], and the tubes were allowed to set until the solution cleared. The tubes were again centrifuged, and the pellet was washed and resuspended in PBS. Cells were counted and adjusted to about 10^6 cells/ml.
Three milliliters of various concentrations of white blood cells in potassium phosphate buffer (0.05 molar, pH 7.5) were mixed with 10 μl of the substrate of Example 3 ([…]), and the relative fluorescence was measured at an excitation wavelength of 540 nm and a maximum emission wavelength of 620 nm.

[1] = test system: carboxy esterase (Esterase, Type II); experiment: Determination of esterase activity in a dry analytical element; type: biochemical; conditions: filter paper element; 10 μl of 10 μg/ml esterase, pH 7.5; 1 minute incubation at 37° C.
Description: A strip of Whatman No. 2 filter paper (VWR Scientific Co., Rochester, N.Y., U.S.A.) was immersed in a solution of the substrate in methanol (3 mg in 0.5 ml). The paper was then allowed to dry at 37° C. for two hours.
A carboxy esterase (Esterase, Type II, 100 I.U./mg protein from Sigma Chemical Co., St. Louis, Mo., U.S.A.) was dissolved in 0.05 molar potassium phosphate buffer (pH 7.5), 10 μg/ml of buffer. A sample (10 μl) of this solution was applied to the filter paper and the sample came into contact with the substrate therein. A Control solution containing only buffer was applied to a separate area of the element. After 1 minute incubation at 37° C., the element was visually examined.

CC(=O)Oc1ccc2c3c(cccc13)C(=O)C=C2 [Example 3]
Relative Fluorescence, Test Cell (diacetinase; 0 min): 134 | Relative Fluorescence, Test Cell (diacetinase; 0.5 min): 142 | Relative Fluorescence, Test Cell (diacetinase; 1.0 min): 150 | Relative Fluorescence, Test Cell (diacetinase; 3.0 min): 161 | Relative Fluorescence, Test Cell (diacetinase; 5.0 min): 175 | Relative Fluorescence, Test Cell (diacetinase; 7.0 min): 202 | Relative Fluorescence, Test Cell (diacetinase; 10.0 min): 238 | Relative Fluorescence, Test Cell (diacetinase; 15.0 min): 266 | Generation of fluorescence in the cell containing the esterase enzyme (in words) (diacetinase): rapid generation of fluorescence | Relative Fluorescence (white blood cells; Sample 2, Cell Conc/μl 4.92 × 10^3, 0 Min): 28.2 | Relative Fluorescence (white blood cells; Sample 2, Cell Conc/μl 4.92 × 10^3, 10 Min): 37.1 | Relative Fluorescence (white blood cells; Sample 2, Cell Conc/μl 4.92 × 10^3, 15 Min): 42.6 | Relative Fluorescence (white blood cells; Sample 2, Cell Conc/μl 4.92 × 10^3, 30 Min): 60.4 | Relative Fluorescence (white blood cells; Sample 3, Cell Conc/μl 4.92 × 10^4, 0 Min): 23.2 | Relative Fluorescence (white blood cells; Sample 3, Cell Conc/μl 4.92 × 10^4, 10 Min): 41.7 | Relative Fluorescence (white blood cells; Sample 3, Cell Conc/μl 4.92 × 10^4, 15 Min): 48.8 | Relative Fluorescence (white blood cells; Sample 3, Cell Conc/μl 4.92 × 10^4, 30 Min): 70.3 | Relative Fluorescence (white blood cells; Sample 4, Cell Conc/μl 4.92 × 10^5, 0 Min): 25.6 | Relative Fluorescence (white blood cells; Sample 4, Cell Conc/μl 4.92 × 10^5, 10 Min): 69.0 | Relative Fluorescence (white blood cells; Sample 4, Cell Conc/μl 4.92 × 10^5, 15 Min): 85.0 | Relative Fluorescence (white blood cells; Sample 4, Cell Conc/μl 4.92 × 10^5, 30 Min): 124.0 | Colour of element area contacted with esterase enzyme (visual examination) [1]: bright orange

From patent US4812409A, “Hydrolyzable fluorescent substrates and analytical determinations using same” (Eastman Kodak Company, priority 1986, dated 1989)
